Literature values, collected in patent US6962905B1, “Pharmaceutical formulation comprising a low molecular weight thrombin inhibitor and its prodrug” (AstraZeneca AB, priority 1999, dated 2005).

Tested on: DVT after total hip/knee replacement or major surgery
Conditions: background statements from literature

Row | Compound | effect on incidence of DVT after surgery
1 | CC(=O)Oc1ccccc1C(=O)O [aspirin] | limited efficacy
2 | CC(=O)CC(c1ccccc1)c1c(O)c2ccccc2oc1=O (stereo not drawn) [warfarin] | effective in reducing DVT
3 | hirudin | superior to unfractionated heparin and LMWH
